Values joined by “and” are separate entries in the source; they are usually repeats but may differ in a detail not shown here. Equal entries are not always repeated. Toxic doses and inconclusive results are not listed.
System: L1210 leukemia ip in BDF1 mice, survival T/C
Assay: NCI In Vivo Anticancer Drug Screen. Data for tumor model L1210 Leukemia (intraperitoneal) in B6D2F1 (BDF1) mice
Conditions: endpoint: mean survival time, higher = longer survival
How it was run: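 In this screen, tumor-bearing mice given compound are compared to those given vehicle, and their survival values are reported as a treated-to-control quotient.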

[1] = dose: 100.0 mg/kg/injection, schedule: Q01DX009 (ip), vehicle: saline with Tween-80
[2] = dose: 50.0 mg/kg/injection, schedule: Q01DX001 (ip), vehicle: carboxymethylcellulose (CMC)
[3] = dose: 100.0 mg/kg/injection, schedule: Q01DX001 (ip), vehicle: carboxymethylcellulose (CMC)
[4] = dose: 200.0 mg/kg/injection, schedule: Q01DX001 (ip), vehicle: carboxymethylcellulose (CMC)
[5] = dose: 400.0 mg/kg/injection, schedule: Q01DX001 (ip), vehicle: carboxymethylcellulose (CMC)
[6] = dose: 100.0 mg/kg/injection, schedule: Q04DX003 (ip), vehicle: saline with Tween-80
[7] = dose: 200.0 mg/kg/injection, schedule: Q01DX009 (ip), vehicle: saline with Tween-80
[8] = dose: 200.0 mg/kg/injection, schedule: Q04DX003 (ip), vehicle: saline with Tween-80
[9] = dose: 400.0 mg/kg/injection, schedule: Q01DX009 (ip), vehicle: saline with Tween-80
[10] = dose: 400.0 mg/kg/injection, schedule: Q04DX003 (ip), vehicle: saline with Tween-80
[11] = dose: 100.0 mg/kg/injection, schedule: Q01DX001 (ip), vehicle: saline
[12] = dose: 200.0 mg/kg/injection, schedule: Q01DX001 (ip), vehicle: saline
[13] = dose: 400.0 mg/kg/injection, schedule: Q01DX001 (ip), vehicle: saline
[14] = dose: 100.0 mg/kg/injection, schedule: Q04DX003 (ip), vehicle: saline
[15] = dose: 200.0 mg/kg/injection, schedule: Q04DX003 (ip), vehicle: saline
[16] = dose: 400.0 mg/kg/injection, schedule: Q04DX003 (ip), vehicle: saline

With `Nc1nc(Cl)c2[nH]cnc2n1` the T/C (dose: 0.25 mg/kg/injection, schedule: Q01DX009 (ip), vehicle: saline with Tween-80) was 110 % of control, the T/C (dose: 0.5 mg/kg/injection, schedule: Q01DX009 (ip), vehicle: saline with Tween-80) was 112 % of control and the T/C (dose: 1.0 mg/kg/injection, schedule: Q01DX009 (ip), vehicle: saline with Tween-80) was 117 % of control. For the same compound, the T/C (dose: 6.0 mg/kg/injection, schedule: Q01DX009 (ip), vehicle: saline with Tween-80) was 150 % of control, the T/C (dose: 8.8 mg/kg/injection, schedule: Q04DX003 (ip), vehicle: saline with Tween-80) was 112 % of control and the T/C (dose: 13.0 mg/kg/injection, schedule: Q01DX009 (ip), vehicle: Klucel (hydroxypropylcellulose) (HPC)) was 99 % of control. For the same compound, the T/C (dose: 20.0 mg/kg/injection, schedule: Q01DX009 (ip), vehicle: Klucel (hydroxypropylcellulose) (HPC)) was 101 % of control, the T/C (dose: 30.0 mg/kg/injection, schedule: Q01DX009 (ip), vehicle: Klucel (hydroxypropylcellulose) (HPC)) was 101 % of control and the T/C (dose: 30.0 mg/kg/injection, schedule: Q04DX003 (ip), vehicle: saline with Tween-80) was 195 % of control. The T/C (dose: 37.5 mg/kg/injection, schedule: Q04DX009 (ip), vehicle: Klucel (hydroxypropylcellulose) (HPC)) was 94 % of control, the T/C (dose: 44.0 mg/kg/injection, schedule: Q01DX009 (ip), vehicle: Klucel (hydroxypropylcellulose) (HPC)) was 100 % of control and the T/C (dose: 50.0 mg/kg/injection, schedule: Q01DX009 (ip), vehicle: saline with Tween-80) was 107 % of control. For the same compound, the T/C (dose: 66.0 mg/kg/injection, schedule: Q01DX009 (ip), vehicle: Klucel (hydroxypropylcellulose) (HPC)) was 104 % of control, the T/C (dose: 75.0 mg/kg/injection, schedule: Q04DX009 (ip), vehicle: Klucel (hydroxypropylcellulose) (HPC)) was 104 % of control and the T/C [1] was 124 % of control. For the same compound, the T/C (dose: 150.0 mg/kg/injection, schedule: Q04DX009 (ip), vehicle: Klucel (hydroxypropylcellulose) (HPC)) was 97 % of control.
With `CC1([N+](=O)[O-])COP(=O)(NCc2ccccn2)OC1` (stereo not given) the T/C [2] was 107 % of control, the T/C [3] was 103 % of control and the T/C [4] was 97 % of control. For the same compound, the T/C [5] was 103 % of control.
In the case of `CSP(N)(N)=O`, the T/C (dose: 5.0 mg/kg/injection, schedule: Q01DX001 (ip), vehicle: saline) is reported as 97 % of control and the T/C (dose: 10.0 mg/kg/injection, schedule: Q01DX001 (ip), vehicle: saline) is reported as 103 % of control.
For `Cc1cccc(NC(=O)c2ccccc2Cl)c1C`, the T/C [1] was 103 % of control, the T/C [6] was 95 % of control and the T/C [7] was 95 % of control. The T/C [8] was 93 % of control, the T/C [9] was 104 % of control and the T/C [10] was 91 % of control.
`Cc1ccc(S(=O)(=O)NC(C(=O)O)C(C)C)cc1` (stereo not given) was tested, and the T/C [6] was 102 % of control, the T/C [8] was 100 % of control and the T/C [10] was 102 % of control.
With `Cc1ccc(S(=O)(=O)N/N=C/C(O)C(O)C(O)CO)cc1` (stereo not given) the T/C [1] was 94 % of control, the T/C [6] was 94 % of control and the T/C [7] was 103 % of control. For the same compound, the T/C [8] was 94 % of control, the T/C [9] was 96 % of control and the T/C [10] was 96 % of control.
`O=C(c1ccccc1)c1ccc(C2CCCCC2)cc1` was tested, and the T/C [2] was 98 % of control, the T/C [3] was 104 % of control and the T/C [4] was 98 % of control. For the same compound, the T/C [5] was 100 % of control.
In the case of `OCC1OC(n2cnc3c2ncn2nnnc32)C(O)C1O` (stereo not given), the T/C (dose: 100.0 mg/kg/injection, schedule: Q01DX005 (ip), vehicle: saline) is reported as 100 % of control and the T/C (dose: 200.0 mg/kg/injection, schedule: Q01DX005 (ip), vehicle: saline) is reported as 110 % of control.
With `CN1CCC2(C1)C1CC3CC(C1)CC2C3` (stereo not given) the T/C (dose: 75.0 mg/kg/injection, schedule: Q01DX001 (ip), vehicle: saline) was 97 % of control.
For `NC(CSC(c1ccccc1)(c1ccccc1)c1ccc(CBr)cc1)C(=O)O` (stereo not given), the T/C (dose: 50.0 mg/kg/injection, schedule: Q01DX009 (ip), vehicle: other) was 105 % of control, the T/C (dose: 100.0 mg/kg/injection, schedule: Q01DX009 (ip), vehicle: other) was 115 % of control and the T/C (dose: 200.0 mg/kg/injection, schedule: Q01DX009 (ip), vehicle: other) was 121 % of control.
For `CCOC(=O)C(Br)(C(=O)OCC)C(C)C`, the T/C (dose: 100.0 mg/kg/injection, schedule: Q01DX009 (ip), vehicle: saline) was 101 % of control, the T/C (dose: 200.0 mg/kg/injection, schedule: Q01DX009 (ip), vehicle: saline) was 95 % of control and the T/C (dose: 400.0 mg/kg/injection, schedule: Q01DX009 (ip), vehicle: saline) was 100 % of control.
With `CCCCCCCCCCCCCC(CCCCCC)c1ccccc1` (stereo not given) the T/C (dose: 100.0 mg/kg/injection, schedule: Q01DX001 (ip), vehicle: saline + alcohol) was 119 % of control, the T/C (dose: 200.0 mg/kg/injection, schedule: Q01DX001 (ip), vehicle: saline + alcohol) was 106 % of control and the T/C (dose: 400.0 mg/kg/injection, schedule: Q01DX001 (ip), vehicle: saline + alcohol) was 95 % of control.
`COC(=O)CCCc1ccc(N(CCO)CCF)cc1` was tested, and the T/C (dose: 25.0 mg/kg/injection, schedule: Q01DX001 (ip), vehicle: carboxymethylcellulose (CMC)) was 103 % of control, the T/C [2] was 114 % of control and the T/C [3] was 101 % of control. For the same compound, the T/C [4] was 106 % of control.
In the case of `CC1CC1C(N)=O` (stereo not given), the T/C (dose: 100.0 mg/kg/injection, schedule: Q04DX002 (ip), vehicle: saline) is reported as 97 % of control and the T/C (dose: 200.0 mg/kg/injection, schedule: Q04DX002 (ip), vehicle: saline) is reported as 110 % of control.
`Cc1ccc(S(=O)(=O)F)cc1N` was tested, and the T/C (dose: 25.0 mg/kg/injection, schedule: Q01DX009 (ip), vehicle: carboxymethylcellulose (CMC)) was 95 % of control and 100 % of control, the T/C (dose: 25.0 mg/kg/injection, schedule: Q04DX002 (ip), vehicle: carboxymethylcellulose (CMC)) was 100 % of control and 106 % of control and the T/C [2] was 104 % of control and 87 % of control. For the same compound, the T/C (dose: 50.0 mg/kg/injection, schedule: Q01DX009 (ip), vehicle: carboxymethylcellulose (CMC)) was 103 % of control and 88 % of control, the T/C (dose: 50.0 mg/kg/injection, schedule: Q04DX002 (ip), vehicle: carboxymethylcellulose (CMC)) was 93 % of control and 100 % of control and the T/C (dose: 50.0 mg/kg/injection, schedule: Q04DX003 (ip), vehicle: carboxymethylcellulose (CMC)) was 98 % of control and 90 % of control. For the same compound, the T/C [3] was 101 % of control and 104 % of control, the T/C (dose: 100.0 mg/kg/injection, schedule: Q04DX002 (ip), vehicle: carboxymethylcellulose (CMC)) was 107 % of control and 90 % of control and the T/C (dose: 100.0 mg/kg/injection, schedule: Q04DX003 (ip), vehicle: carboxymethylcellulose (CMC)) was 94 % of control and 87 % of control. The T/C [4] was 106 % of control and 111 % of control and the T/C (dose: 200.0 mg/kg/injection, schedule: Q04DX003 (ip), vehicle: carboxymethylcellulose (CMC)) was 96 % of control and 87 % of control.
For `CSc1ccc(NC(=O)Nc2ccc(NC(C)=O)cc2)cc1`, the T/C [1] was 97 % of control, the T/C [7] was 98 % of control and the T/C [9] was 97 % of control.
In the case of `COC(=O)CC(c1ccc2c(c1)OCO2)N1CCOCC1` (stereo not given), the T/C [11] is reported as 119 % of control, the T/C [12] is reported as 113 % of control and the T/C [13] is reported as 104 % of control.
For `O=C1C2CC3C=CC1C(C3)C2` (stereo not given) (tested in a mixture with another compound), the T/C (dose: 100.0 mg/kg/injection, schedule: Q01DX001 (ip), vehicle: Klucel (hydroxypropylcellulose) (HPC)) was 104 % of control, the T/C (dose: 200.0 mg/kg/injection, schedule: Q01DX001 (ip), vehicle: Klucel (hydroxypropylcellulose) (HPC)) was 103 % of control and the T/C (dose: 400.0 mg/kg/injection, schedule: Q01DX001 (ip), vehicle: Klucel (hydroxypropylcellulose) (HPC)) was 97 % of control.
`Nc1nc2c(c(-c3ccc(Cl)cc3)n1)CN(CCC(=O)O)C2=O` was tested, and the T/C [11] was 100 % of control, the T/C [14] was 98 % of control and the T/C [12] was 105 % of control. For the same compound, the T/C [15] was 98 % of control, the T/C [13] was 102 % of control and the T/C [16] was 98 % of control.
In the case of `C/C(=N/N(CCCCN(/N=C(/C)c1ccccc1)c1ccccc1)c1ccccc1)c1ccccc1`, the T/C (dose: 50.0 mg/kg/injection, schedule: Q01DX001 (ip), vehicle: saline) is reported as 97 % of control, the T/C [11] is reported as 95 % of control and the T/C [12] is reported as 92 % of control. The T/C [13] was 92 % of control.
For `CC1(C)C2CCC1(C)C(OC(=O)C1OC(O)C(O)C(O)C1O)C2` (stereo not given), the T/C [6] was 102 % of control, the T/C [8] was 104 % of control and the T/C [10] was 102 % of control.
For `O=C(NCCO)NCCO`, the T/C [14] was 95 % of control, the T/C [15] was 98 % of control and the T/C [16] was 123 % of control.

From PubChem BioAssay AID248 (DTP/NCI, 2004)
